According to patent US12252481B2, “Anti-viral compounds” (Aligos Therapeutics, Inc., priority 2021, dated 2025):

Assays:
HRV3C = target: T1, HRV3C (Human rhinovirus 14, UniProt P03303); experiment: biochemical; set-up: species or system HRV; conditions: HRV3C, 30 mins preincubation, SAMDI-MS; read-out: HRV IC50 (bound)
T1 construct: 3CLpro and HRV3C was added using a Multidrop Combi

SARS-Cov-2 3CLpro = target: T2, SARS-Cov-2 3CLpro (Severe acute respiratory syndrome coronavirus 2, UniProt P0DTD1); experiment: biochemical; conditions: 3CLpro, 30 mins preincubation, SAMDI-MS; read-out: SARS-Cov-2 IC50 (class)
T2 construct: 3CLpro and HRV3C was added using a Multidrop Combi

[1] = system: B.1.1.7 lineage SARS-CoV-2; experiment: microbe, parasite or virus in culture; assay type: cell-based; conditions: Severe acute respiratory syndrome coronavirus 2, 96 h; read-out: A549-dual_ACE2_TMPRSS2 (EC50)
[2] = system: human beta-coronavirus OC43; experiment: OC43 coronavirus antiviral assay in HeLa cells (cytopathic effect, cell-titer-glo); assay type: cell-based; conditions: Betacoronavirus 1, OC43, HeLa, 144 h, 6 days at 33° C., read-out: EC50 (class)

T1 sequence (P03303 1538-1719): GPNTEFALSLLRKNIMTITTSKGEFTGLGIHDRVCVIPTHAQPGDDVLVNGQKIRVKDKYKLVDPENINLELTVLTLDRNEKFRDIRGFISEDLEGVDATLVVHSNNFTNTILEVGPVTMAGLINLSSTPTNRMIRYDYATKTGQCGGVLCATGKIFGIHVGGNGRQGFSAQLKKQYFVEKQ

Structure (SMILES) | IC50 (HRV3C) | IC50 (SARS-Cov-2 3CLpro) | EC50 [1] | EC50 [2]
CC(C)(C)[C@H](NC(=O)C(F)(F)F)C(=O)N1C[C@H]2[C@@H]([C@H]1C(=O)N[C@H](C#N)C[C@@H]1CCNC1=O)[C@H]1C=C[C@@H]2C1O (mixture of isomers) [Example 90, (1R,2R,3S,6S,7S)—N-[(1S)-1-cyano-2-[(3S)-2-oxopyrrolidin-3-yl]ethyl]-4-[(2S)-3,3-dimethyl-2-(2,2,2-trifluoroacetamido)butanoyl]-10-hydroxy-4-azatricyclo[5.2.1.0^{2,6}]dec-8-ene-3-carboxamide] | > 10000 nM | 20 to 200 nM | 1000 to 10000 nM | 
C[C@@H](OC1CC1)[C@H](NC(=O)C(F)(F)C(F)(F)F)C(=O)N1C[C@H]2[C@@H]([C@H]1C(=O)N[C@H](C#N)C[C@@H]1CCNC1=O)[C@H]1C=C[C@@H]2C1 [Compound 101, (1S,3aR,4S,7R,7aS)-N-((S)-1-cyano-2-((S)-2-oxopyrrolidin-3-yl)ethyl)-2-(O-cyclopropyl-N-(2,2,3,3,3-pentafluoropropanoyl)-L-threonyl)-2,3,3a,4,7,7a-hexahydro-1H-4,7-methanoisoindole-1-carboxamide] | > 500 nM | < 20 nM | < 100 nM | < 100 nM
CC(C)([C@H](NC(=O)C(F)(F)F)C(=O)N1C[C@H]2[C@@H]([C@H]1C(=O)N[C@H](C#N)C[C@@H]1CCNC1=O)[C@H]1C=C[C@@H]2C1)C(F)(F)F [Compound 102a, (1S,3aR,4S,7R,7aS)-N-((S)-1-cyano-2-((S)-2-oxopyrrolidin-3-yl)ethyl)-2-((S)-4,4,4-trifluoro-3,3-dimethyl-2-(2,2,2-trifluoroacetamido)butanoyl)-2,3,3a,4,7,7a-hexahydro-1H-4,7-methanoisoindole-1-carboxamide] | > 500 nM | < 20 nM | < 100 nM | < 100 nM
CC(C)(OCC1CC1)[C@H](NC(=O)C(F)(F)C(F)(F)F)C(=O)N1C[C@H]2[C@@H]([C@H]1C(=O)N[C@H](C#N)C[C@@H]1CCNC1=O)[C@H]1C=C[C@@H]2C1 [Compound 103] | > 500 nM | < 20 nM | < 100 nM | < 100 nM
CC(C)(C)[C@H](NC(=O)C(F)(F)F)C(=O)N1C[C@@H]2[C@@H]3CC[C@@H](C3)[C@@H]2[C@H]1C(=O)N[C@H](C#N)CC1CC2(CC(F)(F)C2)NC1=O (stereo partly drawn) [Compound 104, (1S,2S,3S,6R,7R)—N-[(1S)-1-cyano-2-{2,2-difluoro-6-oxo-5-azaspiro[3.4]octan-7-yl}ethyl]-4-[(2S)-3,3-dimethyl-2-(2,2,2-trifluoroacetamido)butanoyl]-4-azatricyclo[5.2.1.0^{2,6}]decane-3-carboxamide] | > 500 nM | < 20 nM | < 100 nM | 100 to 1000 nM
CC1(C)NC(=O)[C@H](C[C@@H](C#N)NC(=O)[C@@H]2[C@@H]3[C@H](CN2C(=O)[C@@H](NC(=O)C(F)(F)F)C(C)(C)C)[C@@H]2C=C[C@H]3C2)O1 [Compound 105, (1S,3aR,4S,7R,7aS)-N-((S)-1-cyano-2-((S)-2,2-dimethyl-4-oxooxazolidin-5-yl)ethyl)-2-((S)-3,3-dimethyl-2-(2,2,2-trifluoroacetamido)butanoyl)-2,3,3a,4,7,7a-hexahydro-1H-4,7-methanoisoindole-1-carboxamide] | > 500 nM | 20 to 200 nM | < 100 nM | 100 to 1000 nM
CC(C)(C)[C@H](NC(=O)C(F)(F)C(F)(F)F)C(=O)N1C[C@H]2[C@@H]([C@H]1C(=O)N[C@H](C#N)CC1CC3(COC3)NC1=O)[C@H]1C=C[C@@H]2C1 (stereo partly drawn) [Compound 107, (1R,2S,3S,6R,7S)—N-[(1S)-1-cyano-2-{6-oxo-2-oxa-5-azaspiro[3.4]octan-7-yl}ethyl]-4-[(2S)-3,3-dimethyl-2-(2,2,3,3,3-pentafluoropropanamido)butanoyl]-4-azatricyclo[5.2.1.0^{2,6}]dec-8-ene-3-carboxamide] | > 500 nM | < 20 nM | < 100 nM | < 100 nM
CC(C)(C)[C@H](NC(=O)C(F)(F)F)C(=O)N1C[C@H]2[C@@H]([C@H]1C(=O)N[C@H](C#N)CC1C[C@H](C(F)(F)F)NC1=O)[C@H]1C=C[C@@H]2C1 (stereo partly drawn) [Compound 108, (1R,2S,3S,6R,7S)—N-[(1S)-1-cyano-2-[(5R)-2-oxo-5-(trifluoromethyl)pyrrolidin-3-yl]ethyl]-4-[(2S)-3,3-dimethyl-2-(2,2,2-trifluoroacetamido)butanoyl]-4-azatricyclo[5.2.1.0^{2,6}]dec-8-ene-3-carboxamide] | > 500 nM | < 20 nM | < 100 nM | < 100 nM
CC(C)(C)[C@H](NC(=O)CC(F)(F)F)C(=O)N1C[C@H]2[C@@H]([C@H]1C(=O)N[C@H](C#N)C[C@@H]1Oc3ccncc3NC1=O)[C@H]1C=C[C@@H]2C1 [Compound 110, (1S,3aR,4S,7R,7aS)-N-((S)-1-cyano-2-((S)-3-oxo-3,4-dihydro-2H-pyrido[4,3-b][1,4]oxazin-2-yl)ethyl)-2-((S)-3,3-dimethyl-2-(3,3,3-trifluoropropanamido)butanoyl)-2,3,3a,4,7,7a-hexahydro-1H-4,7-methanoisoindole-1-carboxamide] | > 500 nM | < 20 nM | < 100 nM | < 100 nM
CC(C)(C)[C@H](NC(=O)C(F)(F)F)C(=O)N1C[C@H]2[C@@H]([C@H]1C(=O)N[C@H](C#N)C[C@@H]1Oc3ccncc3NC1=O)[C@H]1C=C[C@@H]2C1(F)F [Compound 111] | > 500 nM | < 20 nM | 100 to 1000 nM | < 100 nM
CC(C)(C)[C@H](NC(=O)C(F)(F)F)C(=O)N1C[C@H]2[C@@H]([C@H]1C(=O)N[C@H](C#N)C[C@@H]1Oc3cccnc3NC1=O)[C@H]1C=C[C@@H]2C1 [Compound 112, (1S,3aR,4S,7R,7aS)-N-((S)-1-cyano-2-((S)-3-oxo-3,4-dihydro-2H-pyrido[3,2-b][1,4]oxazin-2-yl)ethyl)-2-((S)-3,3-dimethyl-2-(2,2,2-trifluoroacetamido)butanoyl)-2,3,3a,4,7,7a-hexahydro-1H-4,7-methanoisoindole-1-carboxamide] | > 500 nM | < 20 nM | < 100 nM | 100 to 1000 nM
CC(C)(C)[C@H](NC(=O)C(F)(F)F)C(=O)N1C[C@H]2[C@@H]([C@H]1C(=O)N[C@H](C#N)C[C@@H]1Oc3cnccc3NC1=O)[C@H]1C=C[C@@H]2C1 [Compound 113] | > 500 nM | < 20 nM | < 100 nM | < 100 nM
CC(C)(C)[C@H](NC(=O)C(F)(F)C(F)(F)F)C(=O)N1C[C@H]2[C@@H]([C@H]1C(=O)N[C@H](C#N)C[C@@H]1OCCNC1=O)[C@H]1C=C[C@@H]2C1 [Compound 115, (1S,3aR,4S,7R,7aS)-N-((S)-1-cyano-2-((S)-3-oxomorpholin-2-yl)ethyl)-2-((S)-3,3-dimethyl-2-(2,2,3,3,3 pentafluoropropanamido)butanoyl)-2,3,3a,4,7,7a-hexahydro-1H-4,7-methanoisoindole-1-carboxamide] | > 500 nM | < 20 nM | < 100 nM | < 100 nM
CC(C)(C)[C@H](NC(=O)C(F)(F)Cl)C(=O)N1C[C@H]2[C@@H]([C@H]1C(=O)N[C@H](C#N)C[C@@H]1OCCNC1=O)[C@H]1C=C[C@@H]2C1 [Compound 116] | > 500 nM | < 20 nM | < 100 nM | < 100 nM
CC(C)(C)[C@H](NC(=O)C(F)(F)F)C(=O)N1C[C@H]2[C@@H]([C@H]1C(=O)N[C@H](C#N)C[C@@H]1OCCNC1=O)[C@H]1C=C[C@@H]2C1(F)F [Compound 117] | > 500 nM | < 20 nM | < 100 nM | < 100 nM
CC(C)(C)[C@H](NC(=O)C(F)(F)C(F)(F)F)C(=O)N1C[C@@H]2[C@H]3C[C@@H]([C@@H]2[C@H]1C(=O)N[C@H](C#N)C[C@@H]1OCCNC1=O)[C@H](F)C3 [Compound 118, (1S,2R,3S,6R,7S,9R)—N-[(1S)-1-cyano-2-[(2S)-3-oxomorpholin-2-yl]ethyl]-4-[(2S)-3,3-dimethyl-2-(2,2,3,3,3-pentafluoropropanamido)butanoyl]-9-fluoro-4-azatricyclo[5.2.1.0^{2,6}]decane-3-carboxamide] | > 500 nM | < 20 nM | < 100 nM | < 100 nM
CC(C)(C)[C@H](NC(=O)C(F)(F)F)C(=O)N1C[C@@H]2[C@H]3C[C@H](C[C@@H]3F)[C@@H]2[C@H]1C(=O)N[C@H](C#N)C[C@@H]1OCCNC1=O [Compound 119] | > 500 nM | 20 to 200 nM | 100 to 1000 nM | 100 to 1000 nM
CC(C)(C)[C@H](NC(=O)C(F)(F)F)C(=O)N1C[C@H]2[C@@H]([C@H]1C(=O)N[C@H](C#N)C[C@@H]1OCC3(CC3)NC1=O)[C@H]1C=C[C@@H]2C1 [Compound 120] | > 500 nM | < 20 nM | < 100 nM | < 100 nM
CC(C)(C)[C@H](NC(=O)C(F)(F)F)C(=O)N1C[C@H]2[C@@H]([C@H]1C(=O)N[C@H](C#N)C[C@@H]1OCCCNC1=O)[C@H]1C=C[C@@H]2C1 [Compound 121, (1R,2S,3S,6R,7S)—N-[(1S)-1-cyano-2-[(2S)-3-oxo-1,4-oxazepan-2-yl]ethyl]-4-[(2S)-3,3-dimethyl-2-(2,2,2-trifluoroacetamido)butanoyl]-4-azatricyclo[5.2.1.0^{2,6}]dec-8-ene-3-carboxamide] | > 500 nM | < 20 nM | < 100 nM | < 100 nM
[2H]C([2H])([2H])C([C@H](NC(=O)C(F)(F)F)C(=O)N1C[C@H]2[C@@H]([C@H]1C(=O)N[C@H](C#N)C[C@@H]1CCNC1=O)[C@H]1C=C[C@@H]2C1)(C([2H])([2H])[2H])C([2H])([2H])[2H] [Compound 124] | > 500 nM | < 20 nM |  | 
